Legend:
[1] = system: 57 kDa complex (somatostatin receptor sub-type 2); test: Displacement of radioiodinated 11-Tyr somatostatin-14 from somatostatin receptors, 57 kDa complex (gel electrophoresis/autoradiography); format: binding, rat and human; settings: 10^-6 M; auto-radiographies in electrophoresis
Procedure: (§1) The study of the binding of the peptides on somatostatin receptors has been carried out according to the displacement method which consists in replacing from the receptors the radioligand (11-Tyr radioiodinated somatostatin 14-) before electrophoretic analysis on a denaturant polyacrylaminde gel (Prevost et al. European J. Cancer, 11, 1589-1592,1993).
(§2) The biological activity was tested on rat and human cell lines, namely a GH 3 rat cell line established starting from a pituitary tumor with two 70 and 57 kDa receptors; MCF7 human cell line established starting from a pleural effusion of a breast carcinoma with two main 57 and 42 kDa receptors and human cell line established starting from a small cell carcinoma of the lung with a 57 kDa receptor.
(§3) The tested peptides were suspended in 0.1% acetic acid at the final concentration of 10 mM and stored at 4° C.
(§4) Tests were carried out at a 10^-6 M concentration.

[2] = system: 70 kDa complex (1 or 4 sub-type somatostatin receptors), GH 3 rat cell line; test: Displacement of radioiodinated 11-Tyr somatostatin-14 from somatostatin receptors, 70 kDa complex (gel electrophoresis/autoradiography); format: binding; settings: 10^-6 M; auto-radiographies in electrophoresis
Procedure: as §1, §2, §3, §4

Compound	displacement of the 57 kDa radioligand-receptor complex [1]	suppression of the 70 kDa radioligand-receptor complex [2]
Antarelix	not	–
C[C@H](N)C(=O)NCC(=O)N[C@H]1CSSC[C@@H](C(=O)O)NC(=O)[C@H](CO)NC(=O)[C@H]([C@@H](C)O)NC(=O)[C@H](Cc2ccccc2)NC(=O)[C@H]([C@@H](C)O)NC(=O)[C@H](CCCCN)NC(=O)[C@H](Cc2c[nH]c3ccccc23)NC(=O)[C@H](Cc2ccccc2)NC(=O)[C@H](Cc2ccccc2)NC(=O)[C@H](CC(N)=O)NC(=O)[C@H](CCCCN)NC1=O [somatostatin-14]	–	suppressed

— US5962409A, “Somatostatin-analogous cyclic peptides with inhibitory activity on growth hormone” (priority 1995, dated 1999)
